Data published in patent US20250032527A1, “MEDICAL USE OF N4-HYDROXY CITICOLINE COMPOUNDS” (IMMUNIC AG, priority 2021, published 2025).

What was measured:
[1] = system: human rhinovirus 14 (HRV-14); experiment: microbe, parasite or virus in culture; details: Rhinovirus B, HRV14, HeLa
[2] = in vitro; details: African green monkey, MA-104 cells
[3] = in vitro; details: human, HeLa cells
[4] = system: RSV A2; experiment: RSV virus titers by endpoint titration (CCID50), mono and combination; format: cell-based; details: for RSV Virus Titers: MA-104 cells, virus control 4.0
[5] = physchem; details: pH 7.4, aqueous buffer, kinetic from dmso stock
[6] = physchem; details: fassgf or other biorelevant, kinetic from dmso stock
[7] = in vitro; details: dog, MDCK cells
[8] = physchem; details: simulated gastric fluid
[9] = system: HRV-14; experiment: HRV-14 virus titers by endpoint titration (CCID50), mono and combination; format: cell-based; details: for HRV-14 Virus Titers: Hela cells, virus control 6.7
[10] = in vitro; details: human
[11] = physchem; details: pH 7.4
[12] = A-B permeability (Caco-2, pH 6.5/7.4); details: human, A-B, Caco-2, pH 6.5/7.4, test conc. 1.0E−05M
[13] = system: Caco-2; experiment: A-B permeability (Caco-2, pH 6.5/7.4); details: low solubility, high permeability
[14] = system: SARS-COV-2 d6-YFP; experiment: Combinatorial drug assessment by viral replication inhibition assay (CompuSyn); format: cell-based
[15] = system: influenza A (H1N1, California/07/2009); experiment: microbe, parasite or virus in culture; details: H1N1, MDCK
[16] = system: respiratory syncytial virus (RSV) A2; experiment: microbe, parasite or virus in culture; details: human respiratory syncytial virus, MA104
[17] = system: SARS-COV-2; experiment: microbe, parasite or virus in culture; format: cell-based; details: Severe acute respiratory syndrome coronavirus 2
[18] = B-A permeability (Caco-2, pH 6.5/7.4); details: human, test conc. 1.0E−05M
[19] = Example 1 combined with a DHODH inhibitor
[20] = Caco-2, pH 6.5, Percent Recovery 1st
[21] = Caco-2, pH 6.5, Percent Recovery 2nd
[22] = Caco-2, pH 6.5, Percent Recovery Mean
[23] = Caco-2, pH 6.5, Permeability 1st
[24] = Caco-2, pH 6.5, Permeability 2nd
[25] = Caco-2, pH 6.5, Permeability Mean

Structure (SMILES): C[N+](C)(C)CCOP(=O)([O-])OP(=O)([O-])OC[C@H]1O[C@@H](n2ccc(NO)nc2=O)[C@H](O)[C@@H]1O.[Na+] [Example 1, 2-(((((((2R,3S,4R,5R)-3,4-Dihydroxy-5-(4-(hydroxyamino)-2-oxopyrimidin-1 (2H)-yl)tetrahydrofuran-2-yl)methoxy) (hydroxy)phosphoryl)oxy)oxidophosphoryl)oxy)-N,N,N-trimethylethan-1-aminium mono sodium salt]
- EC50 [1]: 4.7 µM
- CC50 [2]: 2.4 µM
- CC50 [3]: > 25 µM
- RSV Virus Titers ([4]; Conc. 0.0079 μM): 4.5 CCID50/mL (Log10)
- RSV Virus Titers ([4]; Conc. 0.025 μM): 4.0 CCID50/mL (Log10)
- RSV Virus Titers ([4]; Conc. 0.079 μM): 3.5 CCID50/mL (Log10)
- RSV Virus Titers ([4]; Conc. 0.25 μM): 4.0 CCID50/mL (Log10)
- RSV Virus Titers ([4]; Conc. 0.79 μM): 4.0 CCID50/mL (Log10)
- RSV Virus Titers ([4]; Conc. 2.5 μM): 3.5 CCID50/mL (Log10)
- RSV Virus Titers ([4]; Conc. 7.9 μM): 3.5 CCID50/mL (Log10)
- RSV Virus Titers ([4]; Conc. 25 μM): 3.5 CCID50/mL (Log10)
- combination behavior on RSV [4, 19]: synergistic
- solubility ([5]; Solubility 1st): 14.2 µM
- solubility ([5]; Solubility 2nd): 14.4 µM
- solubility ([5]; Solubility Mean): 14.3 µM
- solubility ([6]; Solubility 1st): 13.9 µM
- solubility ([6]; Solubility 2nd): 18.3 µM
- solubility ([6]; Solubility Mean): 16.1 µM
- CC50 [7]: 25 µM
- solubility ([8]; Solubility 1st): < 1 µM
- solubility ([8]; Solubility 2nd): < 1 µM
- solubility ([8]; Solubility Mean): < 1 µM
- HRV-14 Virus Titers ([9]; Conc. 0.0079 μM): 6.7 CCID50/mL (Log10)
- HRV-14 Virus Titers ([9]; Conc. 0.025 μM): 6.7 CCID50/mL (Log10)
- HRV-14 Virus Titers ([9]; Conc. 0.079 μM): 6.7 CCID50/mL (Log10)
- HRV-14 Virus Titers ([9]; Conc. 0.25 μM): 7.0 CCID50/mL (Log10)
- HRV-14 Virus Titers ([9]; Conc. 0.79 μM): 6.7 CCID50/mL (Log10)
- HRV-14 Virus Titers ([9]; Conc. 2.5 μM): 6.0 CCID50/mL (Log10)
- HRV-14 Virus Titers ([9]; Conc. 7.9 μM): 4.7 CCID50/mL (Log10)
- HRV-14 Virus Titers ([9]; Conc. 25 μM): 3.5 CCID50/mL (Log10)
- combination behavior on HRV-14 [9, 19]: synergistic
- CC50 [10]: > 100 µM
- logD [11]: 0.52
- recovery at 10 µM [12, 20]: 121%
- recovery at 10 µM [12, 21]: 115%
- recovery at 10 µM [12, 22]: 118%
- Papp at 10 µM [12, 23]: 36.1 ×10⁻⁶ cm/s
- Papp at 10 µM [12, 24]: 30.7 ×10⁻⁶ cm/s
- Papp at 10 µM [12, 25]: 33.4 ×10⁻⁶ cm/s
- biopharmaceutics classification [13]: Class Il
- combinatorial antiviral effect [14]: synergistic
- EC50 [15]: 4.8 µM
- EC50 [16]: 1.1 µM
- EC50 [17]: < 10 µM
- recovery at 10 µM [18, 20]: 91%
- recovery at 10 µM [18, 21]: 83%
- recovery at 10 µM [18, 22]: 87%
- Papp at 10 µM [18, 23]: 26.1 ×10⁻⁶ cm/s
- Papp at 10 µM [18, 24]: 21.2 ×10⁻⁶ cm/s
- Papp at 10 µM [18, 25]: 23.7 ×10⁻⁶ cm/s
